Values of other authors, collected in patent US20170008834A1, “FUMARATE COMPOUNDS, PHARMACEUTICAL COMPOSITIONS THEREOF, AND METHODS OF USE” (priority 2015, published 2017).

aqueous solubility: poor
SMILES: COC(=O)/C=C/C(=O)OC [DMF, dimethylfumarate]
